Test results: patent publication US20140080810A1 (Exelixis, Inc., priority 2010, published 2014)
Like-named read-outs stand apart in the source and are kept apart here.

Tests used:
PI3Kα = PI3Kα (Homo sapiens, UniProt P42336); test: PI3K Biochemical Assay (ATP consumed, luciferase-luciferin chemiluminescence); details: for IC50: PIP2 used as substrate, read-out: PI3K biochemical IC50 values PI3Kα; for specificity among PI3Kα, PI3Kβ, PI3Kδ, PI3Kγ and mTOR: summary of Table 3
Method: (§1) PI3Kα activity is measured as the percent of ATP consumed following the kinase reaction using luciferase-luciferin-coupled chemiluminescence. Reactions were conducted in 384-well white, medium binding microtiter plates (Greiner). Kinase reactions were initiated by combining test compounds, ATP, substrate (PIP2), and kinase in a 20 μL volume in a buffer solution. The standard PI3Kalpha assay buffer is composed 50 mM Tris, pH 7.5, 1 mM EGTA, 10 mM MgCl2, 1 mM DTT and 0.03% CHAPS. The standard assay concentrations for enzyme, ATP, and substrate are 1.5 nM, 1 μM, and 10 μM, respectively. The reaction mixture was incubated at ambient temperature for approximately 2 h. Following the kinase reaction, a 10 μL aliquot of luciferase-luciferin mix (Promega Kinase-Glo) was added and the chemiluminescence signal measured using a Victor2 plate reader (Perkin Elmer). Total ATP consumption was limited to 40-60% and IC50 values of control compounds correlate well with literature references. Substituting PI3Kα with PI3Kβ, PI3Kγ, or PI3Kδ, the inhibitory activity of the compounds for the other isoforms of I3K were measured.

[1] = tested on: pAKT (T308) in MCF-7 cells (PI3Kα E545K); test: pAKT (T308) ELISA Assay; assay type: cell-based; details: Homo sapiens, MCF7
Method: MCF-7 cells (ATCC) cells were seeded at 24000 cells per well in 96-well plates (Corning, 3904) in DMEM (Cellgro) containing 10% FBS (Cellgro), 1% NEAA (Cellgro) and 1% penicillin-streptomycin (Cellgro). Cells were incubated at 37° C., 5% CO2 for 48 h, and the growth medium was replaced with serum-free DMEM or in medium containing 0.4% BSA. Serial dilutions of the test Compound in 0.3% DMSO (vehicle) were added to the cells and incubated for 3 h. At the end of the incubation period, cells were stimulated for 10 minutes by the addition of L-IGF (Sigma, I-1271) at a final concentration of 100 ng/ml. Afterwards, media was discarded from cell plates and 110 μl/well of cold lysis buffer (see table below) were added. Cell plates were incubated on ice and then put on shaker in 4° C. cold room for 1 h. Two capture plates (Thermo Scientific, Reacti-bind plate, 15042) were prepared for each cell plate by pre-coating with capture Akt antibody from the two sandwich ELISA antibody pairs used (Cell Signaling Technology 7142 and 7144). The Akt capture antibodies were diluted 1:100 in PBS and 100 μl of diluted capture antibody was added per well. Capture plates were incubated at 4 C overnight. Prior to use, capture plates were washed 3 times in TBS containing 0.1% Tween20 (Bio-Rad, 170-6351) (TBST) and blocked in blocking buffer (Thermo Scientific, Starting Block T20, 37543) for 1-2 h at room temperature. After 1 h of cell lysis, 85 μl of cell lysate/well was transferred to the capture plate for detection of pAkt(T308). 15 μl of cell lysate was transferred from same well to the second capture plate for detection of total Akt1. After incubation overnight at 4° C., plates were washed 3 times with 200 μL TBST. Primary antibodies, diluted 1:100 in blocking buffer, were added to the corresponding capture plates for pAkt(T308) (Cell Signaling Technology, 7144) and total Akt1 (Cell Signaling Technology, 7142) detection and incubated at room temperature for 1 h. Plates were washed 3 times with 200 μL of TBST. Goat anti-mouse secondary antibody (Cell Signaling Technology, 7076) conjugated to HRP was diluted 1:1000 in blocking buffer and 100 μl were added to each well and incubated for 30 minutes at room temperature. Plates were then washed 3 times with 200 μL of TBST. 100 μL of SuperSignal ELISA Femto stable peroxidase solution (Thermo Scientific, 37075) was added to each well. After 1 minute incubation, chemiluminescence was read on a Wallac Victor2 1420 multilabel counter. IC50 values were determined based on the ratio of pAkt(T308) to total Akt1 signal for Compound treated wells, normalized to the DMSO-treated control wells.
In another embodiment, the pAKT ELISA Assay was performed by seeding cells onto 96-well plates (Corning, 3904) in their respective growth media at the densities listed in Table 5. Cells were incubated at 37° C., 5% CO2 for 48 h (except MDA-MB-453 cells which were cultured in the absence of CO2). Compounds were serially diluted in DMSO and subsequently diluted in serum-free DMEM. Test compounds were added to cells in serum-free DMEM at a final concentration of 0.3% DMSO and incubated for 3 h. Cells were lysed with 130 μL of ice-cold RIPA lysis buffer (50 mM Tris-HCl, pH 7.5; 0.5% sodium deoxycholic acid; 1% Triton X-100; 0.1% SDS; 150 mM NaCl) with protease and phosphatase inhibitors (1 mM EDTA, 1 mM NaF, 20 mM β-glycerophosphate, 1 mM Na-orthovanadate, Complete-Mini EDTA-free, Roche, 11836170001, and Phosphatase Inhibitor Cocktail I, Sigma, P2850), directly in 96-well plates. Cells were lysed on ice for 60-120 min at 4° C. The supernatants were added directly to capture ELISA plates previously pre-coated with rabbit anti-AKT capture antibody. ELISA assays for pAKT(T308) and total AKT were performed with the pAKT(T308) ELISA kit (Cell Signaling Technology, 7144) and AKT1 ELISA kit (Cell Signaling Technology, 7142). For the pAKT(T308) ELISA, 85 μL of cell lysate was added to each well. […]

PI3Kα E545K = PI3Kα E545K (Homo sapiens, UniProt P42336, E545K); test: PI3K Biochemical Assay; details: PIP2 used as substrate
Sequence of PI3Kα E545K (P42336 whole entry E545K): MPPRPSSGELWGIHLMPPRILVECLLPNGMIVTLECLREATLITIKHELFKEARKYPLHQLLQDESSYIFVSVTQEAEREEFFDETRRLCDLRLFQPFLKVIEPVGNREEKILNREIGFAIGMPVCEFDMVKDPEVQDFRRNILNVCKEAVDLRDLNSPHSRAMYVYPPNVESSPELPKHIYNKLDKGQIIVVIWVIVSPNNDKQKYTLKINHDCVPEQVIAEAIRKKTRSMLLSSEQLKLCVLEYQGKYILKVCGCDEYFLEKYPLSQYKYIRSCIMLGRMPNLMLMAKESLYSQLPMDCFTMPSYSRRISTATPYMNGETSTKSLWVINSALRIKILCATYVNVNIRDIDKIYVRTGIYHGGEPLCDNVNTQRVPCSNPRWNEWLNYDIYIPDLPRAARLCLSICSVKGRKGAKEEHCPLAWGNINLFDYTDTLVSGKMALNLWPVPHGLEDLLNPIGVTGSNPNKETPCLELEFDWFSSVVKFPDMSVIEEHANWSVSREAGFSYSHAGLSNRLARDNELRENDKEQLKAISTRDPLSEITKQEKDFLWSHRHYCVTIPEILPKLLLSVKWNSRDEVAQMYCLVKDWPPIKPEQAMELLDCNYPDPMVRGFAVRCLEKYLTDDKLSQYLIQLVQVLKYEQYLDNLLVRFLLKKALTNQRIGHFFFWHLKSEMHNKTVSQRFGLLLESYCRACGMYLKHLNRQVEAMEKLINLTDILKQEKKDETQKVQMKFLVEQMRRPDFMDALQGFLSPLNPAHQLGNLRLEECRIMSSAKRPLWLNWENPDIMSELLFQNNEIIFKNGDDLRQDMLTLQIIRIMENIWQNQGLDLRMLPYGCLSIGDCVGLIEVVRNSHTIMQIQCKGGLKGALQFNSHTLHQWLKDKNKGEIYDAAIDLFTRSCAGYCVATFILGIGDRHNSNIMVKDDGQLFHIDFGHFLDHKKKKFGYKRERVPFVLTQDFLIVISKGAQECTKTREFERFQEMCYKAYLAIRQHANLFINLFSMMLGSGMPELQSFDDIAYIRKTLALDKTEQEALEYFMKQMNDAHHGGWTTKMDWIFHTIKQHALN
Sequence of PI3Kα E545K (P27986 whole entry partner): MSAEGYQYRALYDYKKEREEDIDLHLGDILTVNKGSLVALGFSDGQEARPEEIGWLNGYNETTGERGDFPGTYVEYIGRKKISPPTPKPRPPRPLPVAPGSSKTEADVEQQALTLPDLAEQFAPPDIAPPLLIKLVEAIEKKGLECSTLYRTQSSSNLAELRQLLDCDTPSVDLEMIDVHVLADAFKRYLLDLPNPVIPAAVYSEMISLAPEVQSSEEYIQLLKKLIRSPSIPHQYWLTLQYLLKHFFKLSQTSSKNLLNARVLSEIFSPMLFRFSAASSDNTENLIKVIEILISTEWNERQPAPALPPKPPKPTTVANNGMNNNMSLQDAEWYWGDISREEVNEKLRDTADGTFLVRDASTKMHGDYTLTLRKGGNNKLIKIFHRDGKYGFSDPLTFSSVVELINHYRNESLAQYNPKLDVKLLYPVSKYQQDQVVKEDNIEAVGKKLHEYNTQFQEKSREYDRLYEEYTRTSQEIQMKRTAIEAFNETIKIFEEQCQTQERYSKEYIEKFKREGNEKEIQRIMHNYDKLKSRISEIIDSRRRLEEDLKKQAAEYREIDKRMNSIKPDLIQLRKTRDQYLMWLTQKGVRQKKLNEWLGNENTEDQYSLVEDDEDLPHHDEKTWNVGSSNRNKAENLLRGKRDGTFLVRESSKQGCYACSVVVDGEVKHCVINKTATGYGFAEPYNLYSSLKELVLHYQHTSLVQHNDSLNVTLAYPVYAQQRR
Method: as §1

[2] = IGF1 stimulation, read-out: pAKT (T308) IC50 MCF-7 PI3Kα E545K IGF1
[3] = Table 7, stimulation line of the head prints PI3Kα, read-out: Cellular pAKT (T308) IC50 PI3KαE545K MCF-7

Sequence of PI3Kα (P42336 whole entry): as the sequence (P42336 whole entry E545K) above, with K545E counted along it
Sequence of PI3Kα (P27986 whole entry partner): as the sequence (P27986 whole entry partner) above

SMILES | IC50 (PI3Kα) [nM] | specificity among PI3Kα, PI3Kβ, PI3Kδ, PI3Kγ and mTOR (PI3Kα) | IC50 [1, 2] [nM] | IC50 [1, 3] [nM] | IC50 (PI3Kα E545K) [nM]
COc1ccc2c(N3CCOc4ccc(-c5cnc6nc(C)[nH]c6c5)cc4C3)nc(CN(C)C)nc2c1 [Compound 696] | 3 | specific for PI3Kα isoforms | 1650 | 1650 | 9
Cc1nc2ncc(-c3ccc4c(c3)CN(c3nc(CN(C)C)nc5c3CC(C)(C)CC5)CCO4)cc2[nH]1 [Compound 693] | 2 |  | 120 | 120 | 5
CCNc1nc2ccc(-c3ccc4c(c3)CN(c3ncnc(NCC)c3C)CCO4)cc2[nH]1 [Compound 699] | 6 | specific for PI3Kα isoforms | 2400 | 2400 | 5
Cc1nc2cc(-c3ccc4c(c3)CN(c3nc(CN(C)C)nc(C)c3C(C)C)CCO4)cnc2[nH]1 [Compound 694] | 4 |  | 135 | 135 | 6
CCNc1nc2ccc(-c3ccc4c(c3)CN(c3ccnc5cc(F)ccc35)CCO4)cc2[nH]1 [Compound 698] | 3 | specific for PI3Kα isoforms | 2240 | 2240 | 6
